US9579314B2 (priority 2015, dated 2017)

Columns and labels:
[1] = target: Human M3 receptor (Homo sapiens, UniProt P20309); conditions: read-out: M3 binding affinity
[2] = target: Human β2 adrenoceptor (Homo sapiens, UniProt P07550); conditions: read-out: B2 binding affinity
Chain of Human β2 adrenoceptor (P07550 whole entry): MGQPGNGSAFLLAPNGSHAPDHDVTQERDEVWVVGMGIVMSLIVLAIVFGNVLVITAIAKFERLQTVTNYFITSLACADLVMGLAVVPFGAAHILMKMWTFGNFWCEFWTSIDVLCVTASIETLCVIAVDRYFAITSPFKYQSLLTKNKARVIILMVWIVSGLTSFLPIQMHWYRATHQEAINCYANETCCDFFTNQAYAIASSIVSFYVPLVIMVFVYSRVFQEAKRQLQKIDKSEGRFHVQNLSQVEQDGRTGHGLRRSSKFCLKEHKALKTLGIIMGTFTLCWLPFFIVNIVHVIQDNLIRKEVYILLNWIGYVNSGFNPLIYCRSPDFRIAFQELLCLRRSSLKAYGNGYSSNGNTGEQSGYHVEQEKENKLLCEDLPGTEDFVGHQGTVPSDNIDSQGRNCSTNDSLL

Chain of Human M3 receptor (P20309 whole entry): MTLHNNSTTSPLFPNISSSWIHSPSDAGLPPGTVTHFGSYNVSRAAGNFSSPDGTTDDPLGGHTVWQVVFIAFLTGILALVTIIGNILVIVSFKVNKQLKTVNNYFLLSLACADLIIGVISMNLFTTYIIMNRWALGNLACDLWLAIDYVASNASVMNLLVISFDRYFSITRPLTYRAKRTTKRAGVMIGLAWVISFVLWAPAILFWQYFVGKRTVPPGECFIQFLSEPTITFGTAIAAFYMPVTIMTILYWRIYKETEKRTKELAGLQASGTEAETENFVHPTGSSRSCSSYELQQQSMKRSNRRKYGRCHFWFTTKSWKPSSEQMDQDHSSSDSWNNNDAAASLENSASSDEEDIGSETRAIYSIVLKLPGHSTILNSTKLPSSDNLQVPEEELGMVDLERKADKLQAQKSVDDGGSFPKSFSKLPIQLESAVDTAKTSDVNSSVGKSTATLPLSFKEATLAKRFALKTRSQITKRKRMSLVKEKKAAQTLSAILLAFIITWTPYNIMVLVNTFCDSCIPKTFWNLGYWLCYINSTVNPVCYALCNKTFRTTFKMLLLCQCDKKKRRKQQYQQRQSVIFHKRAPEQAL

| Structure (SMILES) | IC50 [1] | IC50 [2] |
| --- | --- | --- |
| O=C(COc1cccc([C@](O)(C(=O)OCC2CCN(Cc3ccccc3)CC2)c2ccccc2)c1)N[C@H]1C[C@H](NC(=O)c2ccc(CNC[C@H](O)c3ccc(O)c4[nH]c(=O)ccc34)nc2)C1 [Compound 145, (1-benzylpiperidin-4-yl)methyl (S)-2-hydroxy-2-(3-(2-(((1R,3S)-3-(6-((((R)-2-hydroxy-2-(8-hydroxy-2-oxo-1,2-dihydroquinolin-5-yl)ethyl)amino)methyl)nicotinamido)cyclobutyl)amino)-2-oxoethoxy)phenyl)-2-phenylacetate] | 0.3 to 3 nM | 0.3 to 3 nM |
| O=C(OCC1CCN(Cc2ccccc2)CC1)[C@](O)(c1ccccc1)c1cccc(OCC2CCN(C(=O)[C@H]3CC[C@H](C(=O)N4CCC(CNC[C@H](O)c5ccc(O)c6[nH]c(=O)ccc56)CC4)CC3)CC2)c1 [Compound 157, (1-benzylpiperidin-4-yl)methyl (S)-2-hydroxy-2-(3-((1-((1R,4S)-4-(4-((((R)-2-hydroxy-2-(8-hydroxy-2-oxo-1,2-dihydroquinolin-5-yl)ethyl)amino)methyl)piperidine-1-carbonyl)cyclohexane-1-carbonyl)piperidin-4-yl)methoxy)phenyl)-2-phenylacetate] | 0.3 to 3 nM | > 3 nM |
| O=C(OCC1CCN(Cc2ccccc2)CC1)C(O)(c1cccc(OCCCCCNC[C@H](O)c2ccc(O)c3[nH]c(=O)ccc23)c1)c1ccccc1Cl (stereo partly drawn) [Compound 6, (1-benzylpiperidin-4-yl)methyl 2-(2-chlorophenyl)-2-hydroxy-2-(3-((5-(((R)-2-hydroxy-2-(8-hydroxy-2-oxo-1,2-dihydroquinolin-5-yl)ethyl)amino)pentyl)oxy)phenyl)acetate] | > 3 nM | < 0.3 nM |
| Cc1cccc(C(O)(C(=O)OCC2CCN(Cc3ccccc3)CC2)c2cccc(OCCCCCNC[C@H](O)c3ccc(O)c4[nH]c(=O)ccc34)c2)c1 (stereo partly drawn) [Compound 5, (1-benzylpiperidin-4-yl)methyl 2-hydroxy-2-(3-((5-(((R)-2-hydroxy-2-(8-hydroxy-2-oxo-1,2-dihydroquinolin-5-yl)ethyl)amino)pentyl)oxy)phenyl)-2-(m-tolyl)acetate] | 0.3 to 3 nM | 0.3 to 3 nM |
| O=C(OCC1CCN(Cc2ccccc2)CC1)C(O)(c1ccc(F)cc1)c1cccc(OCCCCCNC[C@H](O)c2ccc(O)c3[nH]c(=O)ccc23)c1 (stereo partly drawn) [Compound 3, (1-benzylpiperidin-4-yl)methyl 2-(4-fluorophenyl)-2-hydroxy-2-(3-((5-(((R)-2-hydroxy-2-(8-hydroxy-2-oxo-1,2-dihydroquinolin-5-yl)ethyl)amino)pentyl)oxy)phenyl)acetate] | 0.3 to 3 nM | < 0.3 nM |
| O=C(COc1cccc([C@](O)(C(=O)OCC2CCN(Cc3ccccc3)CC2)c2ccccc2)c1)N[C@H]1C[C@H](NC(=O)c2ccc(CNC[C@H](O)c3ccc(O)c4[nH]c(=O)ccc34)cn2)C1 [Compound 144, (1-benzylpiperidin-4-yl)methyl (S)-2-hydroxy-2-(3-(2-(((1R,3S)-3-(5-((((R)-2-hydroxy-2-(8-hydroxy-2-oxo-1,2-dihydroquinolin-5-yl)ethyl)amino)methyl)picolinamido)cyclobutyl)amino)-2-oxoethoxy)phenyl)-2-phenylacetate] | 0.3 to 3 nM | < 0.3 nM |
| O=C(COc1cccc([C@](O)(C(=O)OCC2CCN(Cc3ccccc3)CC2)c2ccccc2)c1)NCCCNC(=O)c1ccc(CCNC[C@H](O)c2ccc(O)c3[nH]c(=O)ccc23)cc1 [Compound 85, (1-benzylpiperidin-4-yl)methyl (S)-2-hydroxy-2-(3-(2-((3-(4-(2-(((R)-2-hydroxy-2-(8-hydroxy-2-oxo-1,2-dihydroquinolin-5-yl)ethyl)amino)ethyl)benzamido)propyl)amino)-2-oxoethoxy)phenyl)-2-phenylacetate] | 0.3 to 3 nM | < 0.3 nM |
| O=C(c1ccc(CCNC[C@H](O)c2ccc(O)c3[nH]c(=O)ccc23)cc1)N1CCCC2(C1)CN(C(=O)c1ccc(COc3cccc([C@](O)(C(=O)OCC4CCN(Cc5ccccc5)CC4)c4ccccc4)c3)cc1)C2 [Compound 120, (1-benzylpiperidin-4-yl)methyl (S)-2-hydroxy-2-(3-((4-(6-(4-(2-(((R)-2-hydroxy-2-(8-hydroxy-2-oxo-1,2-dihydroquinolin-5-yl)ethyl)amino)ethyl)benzoyl)-2,6-diazaspiro[3.5]nonane-2-carbonyl)benzyl)oxy)phenyl)-2-phenylacetate] | < 0.3 nM | < 0.3 nM |
| O=C(NCc1ccc(COc2cccc([C@](O)(C(=O)OCC3CCN(Cc4ccccc4)CC3)c3ccccc3)c2)cc1)c1ccc(CNC[C@H](O)c2ccc(O)c3[nH]c(=O)ccc23)cc1 [Compound 42D, (1-benzylpiperidin-4-yl)methyl (S)-2-hydroxy-2-(3-((4-((4-((((R)-2-hydroxy-2-(8-hydroxy-2-oxo-1,2-dihydroquinolin-5-yl)ethyl)amino)methyl)benzamido)methyl)benzyl)oxy)phenyl)-2-phenylacetate] | 0.3 to 3 nM | < 0.3 nM |
| O=C(NCCc1cccc(C(O)(C(=O)OCC2CCN(Cc3ccccc3)CC2)c2ccccc2)c1)c1ccc(CNCC(O)c2ccc(O)c3[nH]c(=O)ccc23)cc1 (stereo in doubt) [Compound 39, (1-benzylpiperidin-4-yl)methyl 2-hydroxy-2-(3-(2-(4-((((R)-2-hydroxy-2-(8-hydroxy-2-oxo-1,2-dihydroquinolin-5-yl)ethyl)amino)methyl)benzamido)ethyl)phenyl)-2-phenylacetate] | 0.3 to 3 nM | < 0.3 nM |
| COc1cc(C(=O)NCC(=O)N2CCC(COc3cccc([C@](O)(C(=O)OCC4CCN(Cc5ccccc5)CC4)c4ccccc4)c3)CC2)ccc1CNC[C@H](O)c1ccc(O)c2[nH]c(=O)ccc12 [Compound 153, (1-benzylpiperidin-4-yl)methyl (S)-2-hydroxy-2-(3-((1-((4-((((R)-2-hydroxy-2-(8-hydroxy-2-oxo-1,2-dihydroquinolin-5-yl)ethyl)amino)methyl)-3-methoxybenzoyl)glycyl)piperidin-4-yl)methoxy)phenyl)-2-phenylacetate] | < 0.3 nM | < 0.3 nM |
| COc1cc(CNC[C@H](O)c2ccc(O)c3[nH]c(=O)ccc23)ccc1C(=O)N[C@H]1C[C@H](NC(=O)COc2cccc([C@](O)(C(=O)OCC3CCN(Cc4ccccc4)CC3)c3ccccc3)c2)C1 [Compound 130, (S)-(1-benzylpiperidin-4-yl)methyl 2-hydroxy-2-(3-(2-(((1R,3S)-3-(4-((((R)-2-hydroxy-2-(8-hydroxy-2-oxo-1,2-dihydroquinolin-5-yl)ethyl)amino)methyl)-2-methoxybenzamido)cyclobutyl)amino)-2-oxoethoxy)phenyl)-2-phenylacetate] | 0.3 to 3 nM | 0.3 to 3 nM |
| O=C(N[C@@H]1CCCN(C(=O)COc2cccc([C@](O)(C(=O)OCC3CCN(Cc4ccccc4)CC3)c3ccccc3)c2)C1)c1ccc(CCNC[C@H](O)c2ccc(O)c3[nH]c(=O)ccc23)cc1 [Compound 113, (1-benzylpiperidin-4-yl)methyl (S)-2-hydroxy-2-(3-(2-((R)-3-(4-(2-(((R)-2-hydroxy-2-(8-hydroxy-2-oxo-1,2-dihydroquinolin-5-yl)ethyl)amino)ethyl)benzamido)piperidin-1-yl)-2-oxoethoxy)phenyl)-2-phenylacetate] | 0.3 to 3 nM | 0.3 to 3 nM |
| O=C(NCC(=O)N1CCC(COc2cccc([C@](O)(C(=O)OCC3CCN(Cc4ccccc4)CC3)c3ccccc3)c2)CC1)c1ccc(CNC[C@H](O)c2ccc(O)c3[nH]c(=O)ccc23)cc1 [Compound 154, (1-benzylpiperidin-4-yl)methyl (S)-2-hydroxy-2-(3-((1-((4-((((R)-2-hydroxy-2-(8-hydroxy-2-oxo-1,2-dihydroquinolin-5-yl)ethyl)amino)methyl)benzoyl)glycyl)piperidin-4-yl)methoxy)phenyl)-2-phenylacetate] | < 0.3 nM | < 0.3 nM |
| O=C(COc1cccc([C@](O)(C(=O)OCC2CCN(Cc3ccccc3)CC2)c2ccccc2)c1)N1CCC2(CC1)CCN(C(=O)c1ccc(CNC[C@H](O)c3ccc(O)c4[nH]c(=O)ccc34)cc1)CC2 [Compound 64, (1-benzylpiperidin-4-yl)methyl (S)-2-hydroxy-2-(3-(2-(9-(4-((((R)-2-hydroxy-2-(8-hydroxy-2-oxo-1,2-dihydroquinolin-5-yl)ethyl)amino)methyl)benzoyl)-3,9-diazaspiro[5.5]undecan-3-yl)-2-oxoethoxy)phenyl)-2-phenylacetate] | < 0.3 nM | 0.3 to 3 nM |
| Cc1ccccc1C(O)(C(=O)OCC1CCN(Cc2ccccc2)CC1)c1cccc(OCCCCCNC[C@H](O)c2ccc(O)c3[nH]c(=O)ccc23)c1 (stereo partly drawn) [Compound 7, (1-benzylpiperidin-4-yl)methyl 2-hydroxy-2-(3-((5-(((R)-2-hydroxy-2-(8-hydroxy-2-oxo-1,2-dihydroquinolin-5-yl)ethyl)amino)pentyl)oxy)phenyl)-2-(o-tolyl)acetate] | > 3 nM | 0.3 to 3 nM |
| O=C(c1ccc(CNC[C@H](O)c2ccc(O)c3[nH]c(=O)ccc23)cc1)N1C[C@@H]2CCN(C(=O)COc3cccc([C@](O)(C(=O)OCC4CCN(Cc5ccccc5)CC4)c4ccccc4)c3)[C@@H]2C1 [Compound 77, (1-benzylpiperidin-4-yl)methyl (S)-2-hydroxy-2-(3-(2-((3aS,6aS)-5-(4-((((R)-2-hydroxy-2-(8-hydroxy-2-oxo-1,2-dihydroquinolin-5-yl)ethyl)amino)methyl)benzoyl)hexahydropyrrolo[3,4-b]pyrrol-1(2H)-yl)-2-oxoethoxy)phenyl)-2-phenylacetate] | 0.3 to 3 nM | 0.3 to 3 nM |
| O=C(COc1cccc([C@](O)(C(=O)OCC2CCN(Cc3ccccc3)CC2)c2ccccc2)c1)N1CCCC2(CCN(C(=O)c3ccc(CCNC[C@H](O)c4ccc(O)c5[nH]c(=O)ccc45)cc3)CC2)C1 [Compound 99, (1-benzylpiperidin-4-yl)methyl (S)-2-hydroxy-2-(3-(2-(9-(4-(2-(((R)-2-hydroxy-2-(8-hydroxy-2-oxo-1,2-dihydroquinolin-5-yl)ethyl)amino)ethyl)benzoyl)-2,9-diazaspiro[5.5]undecan-2-yl)-2-oxoethoxy)phenyl)-2-phenylacetate] | 0.3 to 3 nM | 0.3 to 3 nM |
